Data reported in patent EP4725957A1, “GROUP OF CYCLIC ALKALINE LIPOPEPTIDE COMPOUNDS, AND PREPARATION METHOD THEREFOR AND USE THEREOF” (Institute of Medicinal Biotechnology, Chinese Academy of …, priority 2023, dated 2024).
Converted amounts (≈) assume the structure as drawn. Bridge positions count the residues as written; N and C are the ends. Square brackets hold non-standard residues; d marks the D form. Peptide text beside a SMILES is read from it. * marks the point of attachment. Heptanoyl(6-Me) = CC(C)CCCCC(=O)*; Dab = NCC[C@H](N)C(=O)O; Dap = NC[C@H](N)C(=O)O

Legend:
Format in all cases: cell-based
[1] = tested on: Escherichia coli ATCC BAA-2340 (KPC); settings: Escherichia coli ATCC BAA-2340 (KPC)
Summary of the method: (§1)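 Broth microdilution MIC per CLSI in MH broth, compounds 2-fold diluted to final 64–0.03 mg/L. Inoculum (2-4) × 10^5 CFU/mL final, from 0.5 McFarland suspensions of 18-24 h colonies. Plates sealed and incubated 35-37°C for 16-20 h.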

[2] = tested on: Klebsiella pneumoniae KPN+19-15; settings: Klebsiella pneumoniae KPN 19-15
Summary of the method: as §1

[3] = tested on: Acinetobacter baumannii NCTC 13304 (OXA-27); settings: Acinetobacter baumannii NCTC 13304 (OXA-27)
Summary of the method: as §1

[4] = tested on: Acinetobacter baumannii ABA19-1; settings: Acinetobacter baumannii ABA19-1
Summary of the method: as §1

[5] = tested on: Klebsiella pneumoniae ATCC BAA-1705 (KPC); settings: Klebsiella pneumoniae ATCC BAA-1705 (KPC)
Summary of the method: as §1

[6] = tested on: Pseudomonas aeruginosa PAE19-3; settings: Pseudomonas aeruginosa PAE19-3
Summary of the method: as §1

[7] = tested on: Escherichia coli ATCC BAA-2523; settings: Escherichia coli ATCC BAA-2523
Summary of the method: as §1

[8] = tested on: Pseudomonas aeruginosa ATCC 27853; settings: Pseudomonas aeruginosa ATCC27853
Summary of the method: as §1

CC(C)CCCCC(=O)N[C@@H](CCN)C(=O)N[C@H](C(=O)N[C@@H](CN)C(=O)N[C@H]1CCNC(=O)[C@H]([C@@H](C)O)NC(=O)[C@H](CCN)NC(=O)[C@H](CCN)NC(=O)[C@H]([C@@H](C)O)NC(=O)[C@@H](Cc2ccccc2)NC(=O)[C@H](CCN)NC1=O)[C@@H](C)O [Compound 7, 6-methylheptanoyl-Dab-Thr-Dap-ring(4-10)[Dab-Dab-D-Phe-Thr-Dab-Dab-Thr]] ({Heptanoyl(6-Me)}-[Dab]T[Dap][Dab][Dab][dF]T[Dab][Dab]T; lactam 4-C)
MIC [1]: ≤0.03 µg/mL | MIC [2]: ≤0.03 µg/mL | MIC [3]: ≤0.03 µg/mL | MIC [4]: ≤0.03 µg/mL | MIC [5]: ≤0.03 µg/mL | MIC [6]: 0.125 µg/mL (≈ 0.107 µM) | MIC [7]: ≤0.03 µg/mL | MIC [8]: ≤0.03 µg/mL
